Columns and labels:
Type in all cases: in vivo, human
[1] = system: Subjects Having Insomnia Disorder; assay: Example 1: subjective sleep onset latency (sSOL), Sleep Diary
Source text: As used herein, the term “subjective sleep onset latency”, abbreviated as “sSOL”, means the estimated number of minutes from the time that the subject attempted to sleep until sleep onset. In some embodiments, sSOL is derived from data entered in a subject's Sleep Diary.
(§1) In some embodiments, sleep diaries were used to assess sleep parameters reported by subjects (i.e., subjective assessments) including subjective sleep onset latency (sSOL), subjective sleep efficiency (sSE), subjective WASO (sWASO), and subjective total sleep time (sTST). Subjects were instructed to complete the Sleep Diary developed based on the consensus Sleep Diary as described in Carney et al., “The consensus sleep diary: standardizing prospective sleep self-monitoring,” Sleep 2012; 35(2):287-302. In some embodiments, the Sleep Diary was used to assess the subject's global perception of quality of sleep on the previous night with the following question: “How would you rate the quality of your sleep last night?” Subjects rated the quality of their sleep on a scale from 1 to 9, with 1 being extremely poor and 9 being extremely good. In some embodiments, the Sleep Diary was used to assess subjective ratings of morning sleepiness with the following question: “How alert/sleepy do you feel this morning?” Subjects rated their sleepiness/alertness level on a Likert scale from 1 to 9, with 1 being extremely sleepy and 9 being extremely alert.
sSOL—subjective sleep onset latency: estimated minutes from the time that the subject attempted to sleep until sleep onset.
(§2) Subjects were randomized in a double-blind manner and received either placebo, 5 mg of lemborexant, or 10 mg of lemborexant (approximately 1:1:1 randomization). All subjects underwent routine safety monitoring through the study, including assessments of treatment-emergent adverse events, 12-lead electrocardiograms, vital signs, weight, and clinical hematology and blood chemistry labs. Suicidality was assessed using the eC-SSRS.
(§3) Treatment period 1 began with the first dose of randomized study medication (placebo, 5 mg of lemborexant, or 10 mg of lemborexant). Subjects completed sleep diaries daily in the morning, within one hour of waketime. The subjects were assessed by a clinician one month, two months, three months, and six months after initiation of Treatment period 1. The following assessments were conducted:
The primary endpoint was the mean change from study baseline in subjective sleep onset latency at month 6.

[2] = system: Subjects Having Insomnia Disorder; assay: Example 1: subjective wake after sleep onset (sWASO), Sleep Diary
Source text: As used herein, the term “subjective wake after sleep onset”, abbreviated as “sWASO”, means the sum of estimated minutes of wake during the night after initial sleep onset until the time the subject stopped trying to sleep for the night, operationalized as the time the subject got out of bed for the day. In some embodiments, sWASO is derived from data entered in a subject's Sleep Diary. As used herein, an “improvement of sWASO” means a reduction in sWASO.
as §1
sWASO—subjective wake after sleep onset: sum of estimated minutes of wake during the night after initial sleep onset until the time the subject stopped trying to sleep for the night, operationalized as the time the subject got out of bed for the day.
as §2, §3
This study had two key secondary endpoints. The first key secondary endpoint was the mean change from study baseline in subjective sleep efficiency at month 6. The second key secondary endpoint was the mean change from study baseline of subjective wake after sleep onset at month 6.

[3] = system: Subjects Having Insomnia Disorder; assay: Example 2: duration of long awakenings; settings: both doses; relative to placebo, compared with zolpidem ER (FIG. 12)

## Cc1ncc(OC[C@@]2(c3cccc(F)c3)C[C@H]2C(=O)Nc2ccc(F)cn2)c(C)n1 [Lemborexant, (1R,2S)-2-(((2,4-dimethylpyrimidin-5-yl)oxy)methyl)-2-(3-fluorophenyl)-N-(5-fluoropyridin-2-yl)cyclopropanecarboxamide]
[1]; 5 mg and 10 mg, at the equivalent timepoint (Table 2)
  subjective sleep onset latency compared with placebo: shorter subjective sleep onset latency than subjects treated with placebo
[1]; 5 mg, First 7 Nights
  sSOL, Geometric Mean: 30.99 min
  sSOL, Mean: 45.69 min
  sSOL, Median: 36.58 min
[1]; 5 mg, Month 1
  sSOL, Geometric Mean: 26.98 min
  sSOL, Mean: 41.89 min
  sSOL, Median: 32.50 min
[1]; 5 mg, Month 3
  sSOL, Geometric Mean: 21.72 min
  sSOL, Mean: 34.31 min
  sSOL, Median: 24.79 min
[1]; 5 mg, Month 6
  sSOL, Geometric Mean: 18.62 min
  sSOL, Mean: 29.49 min
  sSOL, Median: 22.29 min
[1]; 5 mg, Study Baseline
  sSOL, Geometric Mean: 42.97 min
  sSOL, Mean: 62.19 min
  sSOL, Median: 53.57 min
[1]; 5 mg, after 1 Month
  sSOL Change from Study Baseline, Mean: -19.41 min
  sSOL Change from Study Baseline, Median: -13.71 min
[1]; 5 mg, after 3 Months
  sSOL Change from Study Baseline, Mean: -25.08 min
  sSOL Change from Study Baseline, Median: -20.71 min
[1]; 5 mg, after 6 Months
  sSOL Change from Study Baseline, Mean: -29.39 min
  sSOL Change from Study Baseline, Median: -21.81 min
[1]; 5 mg, after 7 Nights
  sSOL Change from Study Baseline, Mean: -16.86 min
  sSOL Change from Study Baseline, Median: -11.00 min
[1]; 10 mg, First 7 Nights
  sSOL, Geometric Mean: 30.77 min
  sSOL, Mean: 45.94 min
  sSOL, Median: 35.71 min
[1]; 10 mg, Month 1
  sSOL, Geometric Mean: 27.14 min
  sSOL, Mean: 41.93 min
  sSOL, Median: 31.79 min
[1]; 10 mg, Month 3
  sSOL, Geometric Mean: 22.71 min
  sSOL, Mean: 36.13 min
  sSOL, Median: 26.42 min
[1]; 10 mg, Month 6
  sSOL, Geometric Mean: 19.35 min
  sSOL, Mean: 33.09 min
  sSOL, Median: 23.57 min
[1]; 10 mg, Study Baseline
  sSOL, Geometric Mean: 45.05 min
  sSOL, Mean: 64.97 min
  sSOL, Median: 55.71 min
[1]; 10 mg, after 1 Month
  sSOL Change from Study Baseline, Mean: -24.06 min
  sSOL Change from Study Baseline, Median: -19.86 min
[1]; 10 mg, after 3 Months
  sSOL Change from Study Baseline, Mean: -27.94 min
  sSOL Change from Study Baseline, Median: -25.71 min
[1]; 10 mg, after 6 Months
  sSOL Change from Study Baseline, Mean: -32.49 min
  sSOL Change from Study Baseline, Median: -28.21 min
[1]; 10 mg, after 7 Nights
  sSOL Change from Study Baseline, Mean: -18.89 min
  sSOL Change from Study Baseline, Median: -12.21 min
[2]; 5 mg and 10 mg, at the equivalent timepoint (Table 4)
  subjective wake after sleep onset compared with placebo: greater reduction in mean subjective wake after sleep onset than subjects treated with placebo
[2]; 5 mg, First 7 Nights
  sWASO, Mean: 113.53 min
  sWASO, Median: 87.86 min
[2]; 5 mg, Month 1
  sWASO, Mean: 107.07 min
  sWASO, Median: 85.29 min
[2]; 5 mg, Month 3
  sWASO, Mean: 89.48 min
  sWASO, Median: 66.43 min
[2]; 5 mg, Month 6
  sWASO, Mean: 81.79 min
  sWASO, Median: 60.00 min
[2]; 5 mg, Study Baseline
  sWASO, Mean: 132.77 min
  sWASO, Median: 114.71 min
[2]; 5 mg, after 1 Month
  sWASO Change from Study Baseline, Mean: -23.42 min
  sWASO Change from Study Baseline, Median: -19.29 min
[2]; 5 mg, after 3 Months
  sWASO Change from Study Baseline, Mean: -42.98 min
  sWASO Change from Study Baseline, Median: -34.57 min
[2]; 5 mg, after 6 Months
  sWASO Change from Study Baseline, Mean: -51.45 min
  sWASO Change from Study Baseline, Median: -44.02 min
[2]; 5 mg, after 7 Nights
  sWASO Change from Study Baseline, Mean: -20.21 min
  sWASO Change from Study Baseline, Median: -16.01 min
[2]; 5 mg, change from Study Baseline after 1 Month
  sWASO LSM treatment difference: Lemborexant/Placebo: -5.514 min
[2]; 5 mg, change from Study Baseline after 3 Months
  sWASO LSM treatment difference: Lemborexant/Placebo: -13.424 min
[2]; 5 mg, change from Study Baseline after 6 Months
  sWASO LSM treatment difference: Lemborexant/Placebo: -17.474 min
[2]; 5 mg, change from Study Baseline after 7 Nights
  sWASO LSM treatment difference: Lemborexant/Placebo: -14.328 min
[2]; 10 mg, First 7 Nights
  sWASO, Mean: 113.77 min
  sWASO, Median: 92.29 min
[2]; 10 mg, Month 1
  sWASO, Mean: 109.42 min
  sWASO, Median: 95.00 min
[2]; 10 mg, Month 3
  sWASO, Mean: 95.66 min
  sWASO, Median: 70.00 min
[2]; 10 mg, Month 6
  sWASO, Mean: 86.38 min
  sWASO, Median: 62.14 min
[2]; 10 mg, Study Baseline
  sWASO, Mean: 136.83 min
  sWASO, Median: 120.57 min
[2]; 10 mg, after 1 Month
  sWASO Change from Study Baseline, Mean: -26.82 min
  sWASO Change from Study Baseline, Median: -22.29 min
[2]; 10 mg, after 3 Months
  sWASO Change from Study Baseline, Mean: -39.42 min
  sWASO Change from Study Baseline, Median: -36.07 min
[2]; 10 mg, after 6 Months
  sWASO Change from Study Baseline, Mean: -48.12 min
  sWASO Change from Study Baseline, Median: -47.43 min
[2]; 10 mg, after 7 Nights
  sWASO Change from Study Baseline, Mean: -23.30 min
  sWASO Change from Study Baseline, Median: -20.71 min
[2]; 10 mg, change from Study Baseline after 1 Month
  sWASO LSM treatment difference: Lemborexant/Placebo: -7.005 min
[2]; 10 mg, change from Study Baseline after 3 Months
  sWASO LSM treatment difference: Lemborexant/Placebo: -10.079 min
[2]; 10 mg, change from Study Baseline after 6 Months
  sWASO LSM treatment difference: Lemborexant/Placebo: -12.671 min
[2]; 10 mg, change from Study Baseline after 7 Nights
  sWASO LSM treatment difference: Lemborexant/Placebo: -16.720 min
[3]
  length of long awakenings: greater reduction in the length of long awakenings than treatment with zolpidem ER
